Assay results published in paper PMC3506555, “[^11C]phenytoin revisited: synthesis by [^11C]CO carbonylation and first evaluation as a P-gp tracer in rats” (EJNMMI Research, 2012).
Where “and” joins values, the source holds several entries; their conditions need not be identical. Identical values can stand only once.

Legend:
[1] = Metabolite analysis in plasma after i.v. [11C]phenytoin; assay type: in vivo, Sprague–Dawley rats; details: for Percentage of intact [11C]phenytoin, plasma: rat plasma, N = 2
Protocol: Chemicals were obtained from Sigma Aldrich (St. Louis, MO, USA) and were used without further purification. All reactions were carried out under an argon atmosphere unless stated otherwise. [^11C]CO2 was produced using an IBA Cyclone 18/9 cyclotron (IBA, Louvain-La-Neuve, Belgium) by the ^14N(p,α)^11C nuclear reaction performed in a 0.5% O2/N2 gas mixture. Water was purified over a Millipore filter (Millipore, Leiden, The Netherlands). The silica gel used as stationary phase for flash column chromatography was grade 9385, 230 to 400 mesh, 60 Å and obtained from Sigma Aldrich. Chemical shifts (δ) of nuclear magnetic resonance (NMR) spectra were defined relative to the signal of the solvent (7.26 for CDCl3 and 2.50 for DMSO-d6) and measured on a Bruker Avance 250 (Bruker, Billerica, MA, USA), with δ reported in parts per million relative to the solvent. Infrared (IR) spectra were obtained using a Shimadzu FTIR-8400 S (Shimadzu, Kyoto, Japan), and wavelengths (ν) are reported in per centimeter and (s), (m) and (w), indicating strong, moderate and weak signal, respectively. Electrospray ionization high-resolution mass spectrometry (ESI-HRMS) was carried out using a Bruker microTOF-Q instrument in positive ion mode (capillary potential of 4.500 V); electrospray ionization mass spectrometry was carried out using an AB Sciex Qtrap 5500 LC-MS/MS instrument (AB Sciex, Foster City, CA, USA) in negative ion mode. Semi-preparative high performance liquid chromatography (HPLC) was performed on an ACE 5-μM C18, 250*10-mm column (Alltech, Nicholasville, KY, USA) using the following settings: wavelength 230 nm, eluent MeCN/H2O/TFA 60/40/0.15 (v/v/v) and flow 4 mL·min^−1 (method A). Analytical HPLC was performed on a Kromasil 100 C18 10-μM (4.6 to 250 mm) column (Grace Alltech, Breda, The Netherlands) with the following settings: wavelength 230 nm, eluent acetonitrile/water/[…] 75/25/0.2 (v/v/v) and flow 1 mL·min^−1 (method B). Metabolite analysis was performed on a Gemini C18 5-μm (10 to 250 mm) column (Phenomenex, Torrance, CA, USA) (method C) with gradient and a mixture of (A) acetonitrile and (B) 0.1% trifluoro acetic acid in H2O as eluent according to the following scheme: 0 min, 90% B at 0.25 mL·min^−1; 0.5 min, 20% B at 4 mL·min^−1; 9.0 min, 30% B at 4 mL·min^−1; 13 min, 30% B at 4 mL·min^−1; 14.0 min, 90% B at 4.0 mL·min^−1 and 15 min, 90% B at 0.25 mL·min^−1. Tetrahydrofuran (THF), which was used during experiments, was distilled over LiAlH4 just prior to the experiments unless stated otherwise.
To study the metabolic profile of [^11C]phenytoin in the plasma and brain, five male Sprague–Dawley rats were injected with 150 to 250 MBq [^11C]phenytoin in the tail vein under isoflurane anesthesia. Three of these animals were pretreated with 15 mg·kg^−1 tariquidar 20 min prior to [^11C]phenytoin administration. Three arterial blood samples of 0.5, 0.8 and 1.2 mL were withdrawn at 10, 30 and 45 min or at 5, 15 and 25 min after [^11C]phenytoin injection, respectively. Immediately following the last blood sample, the rats were euthanized, and the brain was isolated. All blood samples were collected in heparin tubes and centrifuged at 4.000 rpm for 5 min at 4°C (Hettich Universal 16, Depex B.V., The Netherlands). Plasma was separated from blood cells and, between 0.3 and 0.7 mL, was loaded onto a tC-18 Sep-Pak (Waters, The Netherlands) and washed with 20 mL of water. The eluate was defined as the polar radiolabeled metabolite fraction. Thereafter, the tC-18 Sep-Pak was eluted with 1.5 ml of methanol. This eluate was defined as the nonpolar fraction and was analyzed using HPLC method C. Brain tissue was homogenized with an ultrasonic homogenizer (Braunsonic 1510, Kronberg, Germany) in water, under ice cooling, and subsequently centrifuged at 4,000 rpm for 5 min at 4°C. Separated supernatants were loaded onto a tC-18 Sep-Pak and washed with 20 mL water to obtain the polar fraction.

[2] = Metabolite analysis in brain tissue after i.v. [11C]phenytoin; assay type: in vivo, Sprague–Dawley rats; details: rat brain, N = 2
Protocol: Chemicals were obtained from Sigma Aldrich (St. Louis, MO, USA) and were used without further purification. All reactions were carried out under an argon atmosphere unless stated otherwise. [^11C]CO2 was produced using an IBA Cyclone 18/9 cyclotron (IBA, Louvain-La-Neuve, Belgium) by the ^14N(p,α)^11C nuclear reaction performed in a 0.5% O2/N2 gas mixture. Water was purified over a Millipore filter (Millipore, Leiden, The Netherlands). The silica gel used as stationary phase for flash column chromatography was grade 9385, 230 to 400 mesh, 60 Å and obtained from Sigma Aldrich. Chemical shifts (δ) of nuclear magnetic resonance (NMR) spectra were defined relative to the signal of the solvent (7.26 for CDCl3 and 2.50 for DMSO-d6) and measured on a Bruker Avance 250 (Bruker, Billerica, MA, USA), with δ reported in parts per million relative to the solvent. Infrared (IR) spectra were obtained using a Shimadzu FTIR-8400 S (Shimadzu, Kyoto, Japan), and wavelengths (ν) are reported in per centimeter and (s), (m) and (w), indicating strong, moderate and weak signal, respectively. […]
To study the metabolic profile of [^11C]phenytoin in the plasma and brain, five male Sprague–Dawley rats were injected with 150 to 250 MBq [^11C]phenytoin in the tail vein under isoflurane anesthesia. […] This eluate was defined as the nonpolar fraction and was analyzed using HPLC method C. […]

Percentage of intact [11C]phenytoin, plasma ([1]; 5 min after injection): 60 ± 7% | Percentage of intact [11C]phenytoin, plasma ([1]; 10 min after injection): 50 ± 16% | Percentage of intact [11C]phenytoin, plasma ([1]; 15 min after injection): 38 ± 3% | Percentage of intact [11C]phenytoin, plasma ([1]; 25 min after injection): 28 ± 2% | Percentage of intact [11C]phenytoin, plasma ([1]; 30 min after injection): 32 ± 18% | Percentage of intact [11C]phenytoin, plasma ([1]; 45 min after injection): 19% and 19 ± 8% | Metabolism in tariquidar-treated versus untreated rats ([1]; tariquidar 15 mg·kg^−1, 20 min prior to tracer): no difference in metabolism | Percentage of intact [11C]phenytoin, brain ([2]; 25 min after injection): 95 ± 1% | Percentage of intact [11C]phenytoin, brain ([2]; 45 min after injection): 83% and 83 ± 5%
SMILES: O=C1N[11C](=O)NC1(c1ccccc1)c1ccccc1 [[^11C]phenytoin]
